According to patent US4988681A, “Phosphinic acid derivatives” (Banyu Pharmaceutical Co., Ltd., priority 1988, dated 1991):

Biological target: T1, porcine kidney dehydropeptidase I (Sus scrofa, UniProt P22412)
T1 construct: Frozen porcine kidney cortex was homogenized; from tissue; host or cells: porcine kidney cortex
T1 sequence (P22412 17-409): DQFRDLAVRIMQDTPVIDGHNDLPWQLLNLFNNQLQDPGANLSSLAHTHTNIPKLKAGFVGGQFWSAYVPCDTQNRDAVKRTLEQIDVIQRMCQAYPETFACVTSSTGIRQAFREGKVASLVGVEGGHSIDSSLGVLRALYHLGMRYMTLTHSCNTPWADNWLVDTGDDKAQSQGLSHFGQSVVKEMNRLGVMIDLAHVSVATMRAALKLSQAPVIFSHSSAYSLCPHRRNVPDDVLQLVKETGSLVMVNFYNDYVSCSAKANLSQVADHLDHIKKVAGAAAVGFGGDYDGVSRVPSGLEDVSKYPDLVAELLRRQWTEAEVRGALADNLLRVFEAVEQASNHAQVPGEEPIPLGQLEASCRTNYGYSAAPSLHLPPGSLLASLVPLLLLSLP
Experiment: Inhibitory activity on porcine kidney dehydropeptidase I (DHP-I)
Format: biochemical
Conditions: substrate glycyldehydrophenylalanine, pH 7.4, 37° C., 3 h pre-incubation; read-out: Concentration producing 50% inhibition (IC50)
Protocol: (1) Inhibitory activity on porcine kidney dehydropeptidase I
(i) Purification of porcine dehydropeptidase I
Frozen porcine kidney cortex was homogenized. Butanol (1/4 volume) pre-cooled in a dry ice-acetone bath was added to the homogenate, and the mixture was stirred at 4° C. for 43 hours. The mixture was then dialyzed for one day and centrifuged at 3,000 g for 30 minutes. To the resulting supernatant was added ammonium sulfate. A precipitate at the salt concentration range between 50 and 75% was collected to give a crude enzyme preparation which was re-dissolved in a 50 mM MOPS buffer containing 0.5 M NaCl. The solution was charged on a cilastatin affinity column. Elution with a 50 mM MOPS buffer containing 0.5 M NaCN gave a purified enzyme preparation.
(ii) Measurement of inhibitory activity
The resulting enzyme preparation (3 mU) and an inhibitor were pre-incubatedat 37° C. for 3 hours in 2.7 ml of a 50 mM MOPS buffer (pH 7.4), and then 2.475 ml of the mixture was transferred into a cuvette. As a substrate, 25 microliters of a 5 mM glycyldehydrophenylalanine solution in a 50 mM MOPS buffer (pH 7.4) was added to start an enzymic reaction. The reaction was carried out at 37° C. in a spectrophotometer fitted with a constant-emperature device, and a decrease of the absorbance at 275 nm during a period of 5 minutes was measured. […] An IC50 value was calculated from the percent inhibition data.
One unit (U) is defined as the amount of the enzyme which hydrolyzes 1 micromole of the substrate (glycyldehydrophenylalanine) per minute at a substrate concentration of 0.05 mM at 37° C. in a 50 mM MOPS buffer (pH 7.4).

**Q.** For `CC(C)CP(=O)(O)C/C(=C\C1CCCCC1)C(=O)O` [Compound No. 2, (Z)-3-cyclohexyl-2-(hydroxyisobutylphosphinoyl)methylpropenoic acid], which IC50 is on record?
**A.** 13 nM
